Laboratory results published in patent publication US6737383B1, “Herbicidal oxadiazolidines” (priority 1999, dated 2004).

Legend:
sugar beet = assay: Test B pre/postemergence sugar beet; type: in vivo, Beta vulgaris
Method in brief: (§1)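 Test chemicals in a non-phytotoxic solvent mixture with surfactant were sprayed preemergence onto planted seeds and postemergence onto plants 2 to 18 cm tall (1- to 4-leaf stage). After twelve to sixteen days in a greenhouse, injury was visually rated against untreated controls from 0 (no effect) to 10 (complete control).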

pigweed = assay: Test B pre/postemergence pigweed; type: in vivo, Amaranthus retroflexus
Method in brief: as §1

crabgrass = assay: Test B pre/postemergence crabgrass; type: in vivo, Digitaria sanguinalis
Method in brief: as §1

morningglory = assay: Test B pre/postemergence morningglory; type: in vivo, Ipomoea hederacea
Method in brief: as §1

soybean = assay: Test B pre/postemergence soybean; type: in vivo, Glycine max
Method in brief: as §1

cocklebur = assay: Test B pre/postemergence cocklebur; type: in vivo, Xanthium strumarium
Method in brief: as §1

velvetleaf = assay: Test B pre/postemergence velvetleaf; type: in vivo, Abutilon theophrasti
Method in brief: as §1

wild oat = assay: Test B pre/postemergence wild oat; type: in vivo, Avena fatua
Method in brief: as §1

blackgrass = assay: Test B pre/postemergence blackgrass; type: in vivo, Alopecurus myosuroides
Method in brief: as §1

surinam grass = assay: Test B pre/postemergence surinam grass; type: in vivo, Brachiaria decumbens
Method in brief: as §1

corn = assay: Test B pre/postemergence corn; type: in vivo, Zea mays
Method in brief: as §1

wheat = assay: Test B pre/postemergence wheat; type: in vivo, Triticum aestivum
Method in brief: as §1

rape = assay: Test B pre/postemergence rape; type: in vivo, Brassica napus
Method in brief: as §1

giant foxtail = assay: Test B pre/postemergence giant foxtail; type: in vivo, Setaria faberii
Method in brief: as §1

bedstraw = assay: Test B pre/postemergence bedstraw; type: in vivo, Galium aparine
Method in brief: as §1

purple nutsedge = assay: Test B pre/postemergence purple nutsedge; type: in vivo, Cyperus rotundus
Method in brief: as §1

[1] = Postemergence, Rate 62 g/ha, scale 0 to 10, 0 is no effect, 10 is complete control
[2] = Postemergence, Rate 125 g/ha, scale of 0 to 10 where 0 is no effect and 10 is complete control
[3] = Preemergence, Rate 62 g/ha, scale of 0 to 10 where 0 is no effect and 10 is complete control
[4] = Preemergence, Rate 125 g/ha, scale of 0 to 10 where 0 is no effect and 10 is complete control
[5] = Preemergence, Rate 250 g/ha, scale 0 (no effect) to 10 (complete control)
[6] = Rate 250 g/ha, Postemergence, scale 0 to 10, 0 is no effect, 10 is complete control
[7] = Rate 500 g/ha, Postemergence, scale 0 to 10, 0 is no effect, 10 is complete control
[8] = Preemergence, Rate 500 g/ha, scale of 0 to 10 where 0 is no effect and 10 is complete control
[9] = Rate 500 g/ha, Preemergence, scale 0 to 10 (0 no effect, 10 complete control)

CC(=O)OCC(CCl)n1c(=O)on(C(=O)N(c2ccc(F)cc2F)C(C)C)c1=O (racemic) [Compound 708] was tested, and the “Plant response rating, Sugarbeets” value (sugar beet; [1]) was 0, the “Sugarbeets plant response rating” value (sugar beet; [2]) was 0 and the “Sugarbeets plant response rating” value (sugar beet; [3]) was 0. For the same molecule, the “Plant response rating, Sugarbeets” value (sugar beet; [4]) was 0, the “Sugarbeets plant response rating” value (sugar beet; [5]) was 0 and the “Sugarbeets plant response rating” value (sugar beet; [6]) was 0. The “Sugarbeets plant response rating” value (sugar beet; [7]) was 0, the “Plant response rating, Redroot pigweed” value (pigweed; [1]) was 0 and the “Redroot pigweed plant response rating” value (pigweed; [2]) was 0. The “Redroot pigweed plant response rating” value (pigweed; [3]) was 0, the “Plant response rating, Redroot pigweed” value (pigweed; [4]) was 3 and the “Redroot pigweed plant response rating” value (pigweed; [6]) was 0. The “Redroot pigweed plant response rating” value (pigweed; [7]) was 5, the “Plant response rating, Crabgrass” value (crabgrass; [1]) was 0 and the “Crabgrass plant response rating” value (crabgrass; [2]) was 0. For the same molecule, the “Crabgrass plant response rating” value (crabgrass; [3]) was 6, the “Plant response rating, Crabgrass” value (crabgrass; [4]) was 7 and the “Crabgrass plant response rating” value (crabgrass; [5]) was 10. For the same molecule, the “Crabgrass plant response rating” value (crabgrass; [6]) was 0, the “Crabgrass plant response rating” value (crabgrass; [7]) was 4 and the “Plant response rating, Morningglory” value (morningglory; [1]) was 0. The “Morningglory plant response rating” value (morningglory; [2]) was 2, the “Morningglory plant response rating” value (morningglory; [3]) was 0 and the “Plant response rating, Morningglory” value (morningglory; [4]) was 0. For the same molecule, the “Morningglory plant response rating” value (morningglory; [5]) was 0, the “Morningglory plant response rating” value (morningglory; [6]) was 2 and the “Morningglory plant response rating” value (morningglory; [7]) was 5. For the same molecule, the “Plant response rating, Soybean” value (soybean; [1]) was 3, the “Soybean plant response rating” value (soybean; [2]) was 4 and the “Soybean plant response rating” value (soybean; [3]) was 0. The “Plant response rating, Soybean” value (soybean; [4]) was 0, the “Soybean plant response rating” value (soybean; [5]) was 0 and the “Soybean plant response rating” value (soybean; [6]) was 4. The “Soybean plant response rating” value (soybean; [7]) was 4, the “Plant response rating, Cocklebur” value (cocklebur; [1]) was 0 and the “Cocklebur plant response rating” value (cocklebur; [2]) was 0. For the same molecule, the “Cocklebur plant response rating” value (cocklebur; [3]) was 0, the “Plant response rating, Cocklebur” value (cocklebur; [4]) was 0 and the “Cocklebur plant response rating” value (cocklebur; [5]) was 0. The “Plant response rating, Cocklebur” value (cocklebur; [8]) was 0, the “Cocklebur plant response rating” value (cocklebur; [6]) was 0 and the “Cocklebur plant response rating” value (cocklebur; [7]) was 0. For the same molecule, the “Plant response rating, Velvetleaf” value (velvetleaf; [1]) was 0, the “Velvetleaf plant response rating” value (velvetleaf; [2]) was 0 and the “Velvetleaf plant response rating” value (velvetleaf; [3]) was 0. For the same molecule, the “Plant response rating, Velvetleaf” value (velvetleaf; [4]) was 0, the “Velvetleaf plant response rating” value (velvetleaf; [5]) was 2 and the “Velvetleaf plant response rating” value (velvetleaf; [6]) was 3. For the same molecule, the “Velvetleaf plant response rating” value (velvetleaf; [7]) was 5, the “Plant response rating, Wild oats” value (wild oat; [1]) was 0 and the “Wild oats plant response rating” value (wild oat; [2]) was 0. The “Wild oats plant response rating” value (wild oat; [3]) was 0, the “Plant response rating, Wild oats” value (wild oat; [4]) was 0 and the “Wild oats plant response rating” value (wild oat; [5]) was 0. The “Wild oats plant response rating” value (wild oat; [6]) was 0, the “Wild oats plant response rating” value (wild oat; [7]) was 0 and the “Plant response rating, Blackgrass” value (blackgrass; [1]) was 0. The “Blackgrass plant response rating” value (blackgrass; [2]) was 0, the “Blackgrass plant response rating” value (blackgrass; [3]) was 0 and the “Plant response rating, Blackgrass” value (blackgrass; [4]) was 2. For the same molecule, the “Blackgrass plant response rating” value (blackgrass; [5]) was 3, the “Plant response rating, Blackgrass” value (blackgrass; [8]) was 5 and the “Blackgrass plant response rating” value (blackgrass; [6]) was 2. For the same molecule, the “Blackgrass plant response rating” value (blackgrass; [7]) was 2, the “Plant response rating, B. signalgrass” value (surinam grass; [1]) was 0 and the “B. signalgrass plant response rating” value (surinam grass; [2]) was 0. The “B. signalgrass plant response rating” value (surinam grass; [3]) was 0, the “Plant response rating, B. signalgrass” value (surinam grass; [4]) was 0 and the “B. signalgrass plant response rating” value (surinam grass; [5]) was 0. The “Plant response rating, B. signalgrass” value (surinam grass; [8]) was 0, the “B. signalgrass plant response rating” value (surinam grass; [6]) was 0 and the “B. signalgrass plant response rating” value (surinam grass; [7]) was 2. The “Plant response rating, Corn” value (corn; [1]) was 0, the “Corn plant response rating” value (corn; [2]) was 0 and the “Corn plant response rating” value (corn; [3]) was 0. For the same molecule, the “Plant response rating, Corn” value (corn; [4]) was 0, the “Corn plant response rating” value (corn; [5]) was 0 and the “Corn plant response rating” value (corn; [6]) was 0. For the same molecule, the “Corn plant response rating” value (corn; [7]) was 0, the “Plant response rating, Wheat” value (wheat; [1]) was 0 and the “Wheat plant response rating” value (wheat; [2]) was 0. The “Wheat plant response rating” value (wheat; [3]) was 0, the “Plant response rating, Wheat” value (wheat; [4]) was 0 and the “Wheat plant response rating” value (wheat; [5]) was 0. For the same molecule, the “Wheat plant response rating” value (wheat; [6]) was 0, the “Wheat plant response rating” value (wheat; [7]) was 0 and the “Plant response rating, Rape” value (rape; [1]) was 0. The “Rape plant response rating” value (rape; [2]) was 0, the “Rape plant response rating” value (rape; [3]) was 0 and the “Plant response rating, Rape” value (rape; [4]) was 0. The “Rape plant response rating” value (rape; [5]) was 0, the “Rape plant response rating” value (rape; [6]) was 0 and the “Rape plant response rating” value (rape; [7]) was 0. The “Plant response rating, Giant foxtail” value (giant foxtail; [1]) was 0, the “Giant foxtail plant response rating” value (giant foxtail; [2]) was 2 and the “Giant foxtail plant response rating” value (giant foxtail; [3]) was 5. The “Plant response rating, Giant foxtail” value (giant foxtail; [4]) was 7, the “Giant foxtail plant response rating” value (giant foxtail; [5]) was 8 and the “Giant foxtail plant response rating” value (giant foxtail; [6]) was 4. The “Giant foxtail plant response rating” value (giant foxtail; [7]) was 5, the “Plant response rating, Bedstraw” value (bedstraw; [1]) was 0 and the “Bedstraw plant response rating” value (bedstraw; [2]) was 0. The “Bedstraw plant response rating” value (bedstraw; [3]) was 0, the “Plant response rating, Bedstraw” value (bedstraw; [4]) was 0 and the “Bedstraw plant response rating” value (bedstraw; [5]) was 0. The “Plant response rating, Bedstraw” value (bedstraw; [8]) was 0, the “Plant response rating, Nutsedge” value (purple nutsedge; [1]) was 0 and the “Nutsedge plant response rating” value (purple nutsedge; [2]) was 0. The “Plant response rating, Nutsedge” value (purple nutsedge; [4]) was 0, the “Nutsedge plant response rating” value (purple nutsedge; [5]) was 0 and the “Nutsedge plant response rating” value (purple nutsedge; [6]) was 0. For the same molecule, the “Nutsedge plant response rating” value (purple nutsedge; [7]) was 0.
With COCC(OC)n1c(=O)on(C(=O)N(c2ccccc2)C(C)C)c1=O (stereo not shown) [Compound 734] the “Sugarbeets plant response rating” value (sugar beet; [3]) was 0, the “Plant response rating, Sugarbeets” value (sugar beet; [4]) was 2 and the “Sugarbeets plant response rating” value (sugar beet; [5]) was 5. The “Sugarbeets plant response rating” value (sugar beet; [9]) was 8, the “Redroot pigweed plant response rating” value (pigweed; [3]) was 2 and the “Plant response rating, Redroot pigweed” value (pigweed; [4]) was 7. For the same molecule, the “Redroot pigweed plant response rating” value (pigweed; [5]) was 8, the “Redroot pigweed plant response rating” value (pigweed; [9]) was 8 and the “Crabgrass plant response rating” value (crabgrass; [3]) was 9. For the same molecule, the “Plant response rating, Crabgrass” value (crabgrass; [4]) was 9, the “Crabgrass plant response rating” value (crabgrass; [5]) was 9 and the “Crabgrass plant response rating” value (crabgrass; [9]) was 10. For the same molecule, the “Morningglory plant response rating” value (morningglory; [3]) was 2, the “Plant response rating, Morningglory” value (morningglory; [4]) was 2 and the “Morningglory plant response rating” value (morningglory; [5]) was 3. The “Morningglory plant response rating” value (morningglory; [9]) was 6, the “Soybean plant response rating” value (soybean; [3]) was 0 and the “Plant response rating, Soybean” value (soybean; [4]) was 0. The “Soybean plant response rating” value (soybean; [5]) was 0, the “Soybean plant response rating” value (soybean; [9]) was 7 and the “Cocklebur plant response rating” value (cocklebur; [3]) was 0. For the same molecule, the “Plant response rating, Cocklebur” value (cocklebur; [4]) was 0, the “Cocklebur plant response rating” value (cocklebur; [5]) was 0 and the “Cocklebur plant response rating” value (cocklebur; [9]) was 0. For the same molecule, the “Velvetleaf plant response rating” value (velvetleaf; [3]) was 2, the “Plant response rating, Velvetleaf” value (velvetleaf; [4]) was 3 and the “Velvetleaf plant response rating” value (velvetleaf; [5]) was 5. The “Velvetleaf plant response rating” value (velvetleaf; [9]) was 7, the “Wild oats plant response rating” value (wild oat; [3]) was 3 and the “Plant response rating, Wild oats” value (wild oat; [4]) was 8. The “Wild oats plant response rating” value (wild oat; [5]) was 10, the “Wild oats plant response rating” value (wild oat; [9]) was 10 and the “Blackgrass plant response rating” value (blackgrass; [3]) was 7. The “Plant response rating, Blackgrass” value (blackgrass; [4]) was 9, the “Blackgrass plant response rating” value (blackgrass; [5]) was 9 and the “Blackgrass plant response rating” value (blackgrass; [9]) was 10. For the same molecule, the “B. signalgrass plant response rating” value (surinam grass; [3]) was 9, the “Plant response rating, B. signalgrass” value (surinam grass; [4]) was 9 and the “B. signalgrass plant response rating” value (surinam grass; [5]) was 9. For the same molecule, the “B. signalgrass plant response rating” value (surinam grass; [9]) was 9, the “Corn plant response rating” value (corn; [3]) was 0 and the “Plant response rating, Corn” value (corn; [4]) was 5. The “Corn plant response rating” value (corn; [5]) was 9, the “Corn plant response rating” value (corn; [9]) was 9 and the “Wheat plant response rating” value (wheat; [3]) was 0. The “Plant response rating, Wheat” value (wheat; [4]) was 7, the “Wheat plant response rating” value (wheat; [5]) was 8 and the “Wheat plant response rating” value (wheat; [9]) was 9. The “Rape plant response rating” value (rape; [3]) was 0, the “Plant response rating, Rape” value (rape; [4]) was 2 and the “Rape plant response rating” value (rape; [5]) was 5. The “Rape plant response rating” value (rape; [9]) was 7, the “Giant foxtail plant response rating” value (giant foxtail; [3]) was 9 and the “Plant response rating, Giant foxtail” value (giant foxtail; [4]) was 10. The “Giant foxtail plant response rating” value (giant foxtail; [5]) was 10, the “Giant foxtail plant response rating” value (giant foxtail; [9]) was 10 and the “Bedstraw plant response rating” value (bedstraw; [3]) was 0. The “Plant response rating, Bedstraw” value (bedstraw; [4]) was 0, the “Bedstraw plant response rating” value (bedstraw; [5]) was 0 and the “Bedstraw plant response rating” value (bedstraw; [9]) was 0. For the same molecule, the “Nutsedge plant response rating” value (purple nutsedge; [3]) was 0, the “Plant response rating, Nutsedge” value (purple nutsedge; [4]) was 0 and the “Nutsedge plant response rating” value (purple nutsedge; [5]) was 0.
